Reference: paper PMC12051030, “Identification of inhibitors of the Salmonella FraB deglycase, a drug target” (FEBS Open Bio, 2025)
Values joined by “and” are separate entries in the source; they are usually repeats but may differ in a detail not shown here. Equal values may be shown once. Read-outs that look alike come from different tables or passages of the source.

Molecular target: His6‐FraB (Salmonella FraB deglycase) (Salmonella enterica subsp. enterica serovar Typhimurium, UniProt Q8ZLD0)
Experiment: FraB-G6PD coupled assay, IC50 determination
Type: biochemical
Protocol: The substrate for FraB, 6‐P‐F‐Asp, was synthesized as previously described. FraB activity was monitored as described previously, with the following changes. The final reaction (30 μL) consisted of 25 mM HEPES pH 8 (at 20 °C), 5 mM MgCl2, 0.1 mM ethylene glycol tetraacetic acid (EGTA), 0.5 mM NAD^+, 1 mU G6PD from Leuconostoc mesenteroides (#LS003981; Worthington Biochemicals, Lakewood, NJ, USA), 100 nM His6‐FraB, and 0–3 mM 6‐P‐F‐Asp. The reaction mixture without substrate (29 μL) was added to one well of a 384‐well polystyrene white μClear® microplate (#781095; Greiner Bio‐One, Monroe, NC, USA) and incubated at 37 °C for 2 min, prior to the addition of 1 μL substrate to initiate the reaction. NADH generation was monitored using either absorbance (340 nm) or fluorescence (350 nm excitation, 450 nm emission) and with either an INFINITE M1000 PRO (Tecan, Mannedorf, Switzerland) or Synergy H1 (Biotek, Winooski, VT, USA) plate reader. Absorbance/fluorescence was plotted against time and slopes were obtained by linear regression analyses. These slopes were converted into initial velocities by dividing them by either the absorbance extinction coefficient (ε340 = 6,220 M ^−1·cm^−1) or the molar fluorescence determined based on standard curves obtained in different plate readers (23,646 RFUs·μM ^−1, Tecan; 285,108 RFUs·μM ^−1, Biotek; Fig. S2). These initial velocities (v o) in turn were plotted against [6‐P‐F‐Asp] to obtain Michaelis–Menten curves that were fit to the formula v o = (V max × [S])/(K m + [S]) by Kaleidagraph (Version 4.5.3; Synergy Software, Reading, PA, USA). The activity of recombinant FraB (Fig. S3) was similar to that as reported previously.
For determining the IC50 value of each compound, 26 μL of master mix was added to two rows (48 wells) of a 384‐well Greiner plate followed by 3 μL of inhibitor to four wells per concentration (12 concentrations total) using a single‐channel pipette. After mixing with a 12‐channel pipette, the plate was incubated at 20 °C for 20 min. To initiate the reaction, a 12‐channel pipette was used to add and mix 1 μL of 7.5 mM 6‐P‐F‐Asp to all 48 wells. The final reaction (30 μL) consisted of 25 mM HEPES pH 8.0 at 20 °C, 5 mM MgCl2, 0.1 mM EGTA, 0.5 mM NAD^+, 1 mU G6PD, 100 nM His6‐FraB, 0.25 mM 6‐P‐F‐Asp, and varying concentrations of inhibitor (10% v/v DMSO). NADH fluorescence was monitored every 10 s for 10 min total on a SPARK® multi‐mode multiplate reader (Tecan), as described above, and plotted against time. Slopes of the linear range of each curve were converted to initial velocities, as described above, that were then plotted against (inhibitor). Kaleidagraph was used to fit a sigmoidal curve to each plot using the following formula in order to determine the [IC50]: % inhibition = 100/1 + (IC50/[I]), where I is [inhibitor] [48].

[1] = 0.25 mM 6‐P‐F‐Asp, mean and standard error from two measurements, read-out: IC50
[2] = Trial 1, 0.25 mM 6-P-F-Asp, unit in Fig. S10, read-out: IC50 (curve fit of IC50 plots, Fig. S10)
[3] = Trial 2, 0.25 mM 6-P-F-Asp, unit in Fig. S10, read-out: IC50 (curve fit of IC50 plots, Fig. S10)

Sequence of His6‐FraB (Salmonella FraB deglycase) (Q8ZLD0 entry or part of it): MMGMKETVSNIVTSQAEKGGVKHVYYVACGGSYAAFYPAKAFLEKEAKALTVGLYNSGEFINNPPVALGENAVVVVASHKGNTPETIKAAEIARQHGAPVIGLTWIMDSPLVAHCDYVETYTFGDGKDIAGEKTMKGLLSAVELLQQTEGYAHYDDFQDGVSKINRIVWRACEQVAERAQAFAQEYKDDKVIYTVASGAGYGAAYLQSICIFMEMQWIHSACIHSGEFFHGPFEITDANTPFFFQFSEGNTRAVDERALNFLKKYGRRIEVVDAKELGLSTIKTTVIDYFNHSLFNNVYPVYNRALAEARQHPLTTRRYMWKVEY

Row | SMILES | IC50 [1] [µM] | IC50 [2] | IC50 [3] | IC50 (IC50 (curve fit of IC50 plots, Fig. S10), Trial 1, 0.25 mM 6-P-F-Asp, unit in Fig. S10) [µM] | IC50 (IC50 (curve fit of IC50 plots, Fig. S10), Trial 2, 0.25 mM 6-P-F-Asp, unit in Fig. S10) [µM] | IC50 (IC50, 0.25 mM 6‐P‐F‐Asp, mean and standard error from two measurements) [µM]
1 | CC(C)Cc1cc(-c2nn3c(-c4ccccc4Cl)nnc3s2)n[nH]1 [3470:A09, 3‐(2‐chlorophenyl)‐6‐[5‐(2‐methylpropyl)‐1H‐pyrazol‐3‐yl]‐[1,2,4]triazolo[3,4‐b][1,3,4]thiadiazole] | 15.4 ± 0.4 | 15.8 µM | 15 µM | – | – | –
2 | Cc1cccc(Cl)c1-n1sc(=O)n(CC2CC2)c1=O [1524:E12, 2‐(2‐chloro‐6‐methylphenyl)‐4‐(cyclopropylmethyl)‐1,2,4‐thiadiazolidine‐3,5‐dione] | 4.3 | 4.28 µM and 4.3 µM | 4.29 µM and 4.3 µM | – | – | –
3 | O=c1[nH][nH]c(=S)n1Cc1ccccc1 [1533:K12, 4‐benzyl‐5‐sulfanylidene‐1,2,4‐triazolidin‐3‐one] | 27.6 ± 3.9 | 31.5 µM | 23.7 µM | – | – | –
4 | c1ccc(-c2nnc3sc(C4COc5ccccc5O4)nn23)nc1 (stereo not drawn) [3469:F02, 6‐(2,3‐dihydro‐1,4‐benzodioxin‐3‐yl)‐3‐pyridin‐2‐yl‐[1,2,4]triazolo[3,4‐b][1,3,4]thiadiazole] | 42 ± 2.6 | 44.5 µM and 44.4 µM | 39.3 µM | – | – | –
5 | Fc1ccc(-c2nn3c(-c4ccccn4)nnc3s2)cc1 [3469:N17, 6‐(4‐fluorophenyl)‐3‐pyridin‐2‐yl‐[1,2,4]triazolo[3,4‐b][1,3,4]thiadiazole] | – | – | – | 113 | 86.7 | 100 ± 13
6 | O=c1sn(-c2ccccc2C(F)(F)F)c(=O)n1CC1CC1 [1524:G12, 4‐(cyclopropylmethyl)‐2‐[2‐(trifluoromethyl)phenyl]‐1,2,4‐thiadiazolidine‐3,5‐dione] | 2.8 ± 0.4 | 3.24 µM and 3.2 µM | 2.39 µM and 2.4 µM | – | – | –
